According to patent publication US5843339A, “Phosphites and their production and use” (Sumitomo Chemical Company, Limited, priority 1995, dated 1998):

What was measured:
[1] = Heat stability test of linear low-density polyethylene: processing stability (gel build-up time on kneading); conditions: 0.1 parts test compound per 100 parts LLDPE + 0.1 parts hydrotalcite; pellets extruded at 250° C., kneaded under nitrogen at 240° C., 100 rpm, laboplasto mill; time to maximum torque
Method: Heat stability test of linear low-density polyethylene
Using a 30 mm .phi. mono axial extruder, the above formulation was extruded into pellets at 250° C. The resultant pellets were kneaded under a nitrogen atmosphere at 240° C., 100 rpm, using a laboplasto mill, and the time required for a torque value due to crosslinking to reach a maximum value (gel build-up time, minute) was measured. The results are shown in Table 1 as "processing stability".
The longer the gel build-up time, the more crosslinking on kneading is inhibited and the better the processing stability becomes.

[2] = Hydrolysis resistance: same gel build-up test with test compound stored in a thermo-hygrostat; format: physicochemical; conditions: test compound allowed to stand in thermo-hygrostat (40° C., 80%) for 7 days, then same test as processing stability
Method: Using a test compound which was allowed to stand in a thermo-hygrostat (40° C., 80%) for 7 days, the same test was conducted and the hydrolytic stability of the compound was evaluated. The results are shown in Table 1 as "hydrolysis resistance".
The processing stability of the hydrolyzed compound is deteriorated. Therefore, the better the processing stability after treatment, the better the hydrolysis resistance becomes.

[3] = Dispersion properties: visual transparency of press-molded sheet; format: physicochemical; parameters: key: .circleincircle.: Good; .largecircle.: Slightly good; Δ: Slightly opaque; X: Opaque; conditions: pellets press-molded at 250° C., sheet of 1 mm thickness
Method: The resultant pellets were press-molded at 250° C. to obtain a sheet having a thickness of 1 mm, and transparency of this sheet was visually evaluated. The results are shown in Table 1 as "dispersion properties".
The better the transparency, the better the dispersion properties in the polymer become.
In Table 1, dispersion properties are indicated according to the following criteria.

| Compound | Processing stability (gel build-up time) [1] [min] | Hydrolysis resistance (gel build-up time after treatment of the test compound) [2] [min] | Dispersion properties (transparency of sheet, visually evaluated) [3] |
| --- | --- | --- | --- |
| CC(C)(C)c1ccc(OP2OCC3(CO2)COP(Oc2ccc(C(C)(C)C)cc2C(C)(C)C)OC3)c(C(C)(C)C)c1 (stereo not drawn) [Compound P-1, bis(2,4-di-t-butylphenyl)pentaerythritol diphosphite] | 7 | 7 | X |
| CC(C)(C)c1ccc(OP(Oc2ccc(C(C)(C)C)cc2C(C)(C)C)Oc2ccc(C(C)(C)C)cc2C(C)(C)C)c(C(C)(C)C)c1 [Compound P-2, tris(2,4-di-t-butylphenyl)phosphite] | 7 | 4 | X |
| Cc1cc2c(c(C(C)(C)C)c1)OP(OCCOC(=O)CCc1cc(C)c(O)c(C(C)(C)C)c1)Oc1c(cc(C)cc1C(C)(C)C)C2 [Compound P-3, 2-[3-(3-t-butyl-4-hydroxy-5-methyphenyl)propionyloxy]ethyl 2,2'-methylenebis(6-t-butyl-4-methylphenyl)phosphite] | 16 | 16 | .largecircle. |
| Cc1cc(Cc2cc(C)cc(C(C)(C)C)c2OP2Oc3c(cc(C)cc3C(C)(C)C)Cc3cc(C)cc(C(C)(C)C)c3O2)c(O)c(C(C)(C)C)c1 [Compound P-4, 2-[2-(4,8-di-t-butyl-2,10-dimethyl-12H-dibenzo[d,g][1,3,2]dioxaphosphosin-6-yl)oxy-3-t-butyl-5-methylbenzyl]-6-t-butyl-4-methylphenol] | 15 | 15 | .largecircle. |
| Cc1cc(CCC(=O)OCCOp2oc3c(C(C)(C)C)cc(C(C)(C)C)cc3c3cc(C(C)(C)C)cc(C(C)(C)C)c3o2)cc(C(C)(C)C)c1O [KA-1, 3-(3-t-butyl-4-hydroxy-5-methylphenyl)propionic acid 2-[(2,4,8,10-tetra-t-butyldibenzo[d,f][1,3,2]dioxaphosphepin-6-yl)oxy]ethyl] | 21 | 21 | .circleincircle. |
